From ChEMBL document CHEMBL2434931, “Synthesis and antitumor activities of novel thiourea α-aminophosphonates from dehydroabietic acid” (Eur J Med Chem, 2013)
Calls of active or inactive are those of the source. No cut-off for these calls is given here.

Assays:
[1] = test system: A549; test: Cytotoxicity against human A549 cells after 3 days by MTT assay; assay type: functional, cell-based; conditions: A549, 72 h
[2] = test system: NCI-H460; test: Cytotoxicity against human NCI-H460 cells after 3 days by MTT assay; assay type: functional, cell-based; conditions: NCI-H460, 72 h
[3] = test system: SK-OV-3; test: Cytotoxicity against human SKOV3 cells after 3 days by MTT assay; assay type: functional, cell-based; conditions: SK-OV-3, 72 h
[4] = test system: HepG2; test: Cytotoxicity against human HepG2 cells after 3 days by MTT assay; assay type: functional, cell-based; conditions: HepG2, 72 h
[5] = test system: A549; test: Induction of apoptosis in human A549 cells after 12 hrs by Annexin V-propidium iodide staining-based FACS flow cytometric analysis; assay type: functional, cell-based
[6] = test system: A549; test: Induction of apoptosis in human A549 cells assessed as necrotic/late apoptotic cells at 20 uM after 12 hrs by Annexin V-propidium iodide staining-based FACS flow cytometric analysis (reference value: 0.4%); assay type: functional
[7] = test system: A549; test: Induction of apoptosis in human A549 cells assessed as early apoptotic cells at 20 uM after 12 hrs by Annexin V-propidium iodide staining-based FACS flow cytometric analysis (reference value: 0.2%); assay type: functional
[8] = test system: A549; test: Induction of apoptosis in human A549 cells assessed as DNA ladder formation at 10 to 30 uM by agarose gel electrophoresis; assay type: functional, cell-based
[9] = test system: A549; test: Induction of apoptosis in human A549 cells assessed as membrane blebbing at 15 uM after 12 to 24 hrs by AO/EB staining-based fluorescence microscopic analysis; assay type: functional, cell-based
[10] = test system: A549; test: Cytotoxicity against human A549 cells assessed as necrotic cells at 15 uM after 12 to 24 hrs by AO/EB staining-based fluorescence microscopic analysis; assay type: cell-based; conditions: a549, 15 µM
[11] = test system: A549; test: Induction of apoptosis in human A549 cells assessed as pycnosis at 15 uM after 12 to 24 hrs by AO/EB staining-based fluorescence microscopic analysis; assay type: functional, cell-based
[12] = test system: A549; test: Induction of apoptosis in human A549 cells assessed as DNA fragmentation at 15 uM after 12 to 24 hrs by TUNEL assay; assay type: functional, cell-based
[13] = test system: A549; test: Induction of apoptosis in human A549 cells assessed as decrease in mitochondrial membrane potential at 15 uM after 12 to 24 hrs by JC-1 staining-based fluorescence microscopic analysis; assay type: functional, cell-based
[14] = test system: A549; test: Induction of apoptosis in human A549 cells assessed as early apoptotic cells at 25 uM after 12 hrs by Annexin V-propidium iodide staining-based FACS flow cytometric analysis (reference value: 0.2%); assay type: functional
[15] = test system: A549; test: Induction of apoptosis in human A549 cells at 15 uM after 12 to 24 hrs by Hoechst 33258 staining-based fluorescence microscopic analysis; assay type: functional, cell-based
[16] = test system: A549; test: Induction of apoptosis in human A549 cells assessed as cell budding at 15 uM after 12 to 24 hrs by AO/EB staining-based fluorescence microscopic analysis; assay type: functional
[17] = test system: A549; test: Induction of apoptosis in human A549 cells assessed as necrotic/late apoptotic cells at 25 uM after 12 hrs by Annexin V-propidium iodide staining-based FACS flow cytometric analysis (reference value: 0.4%); assay type: functional

SMILES | IC50 [1] | IC50 [2] | IC50 [3] | IC50 [4] | other results
CCOP(=O)(OCC)C(NC(=S)NC(=O)[C@]1(C)CCC[C@]2(C)c3ccc(C(C)C)cc3C(=O)C[C@@H]12)c1ccc(Cl)cc1 (stereo not given in full) | 30.3 µM | 41.2 µM | 31.4 µM | 39.5 µM | –
CCOP(=O)(OCC)C(NC(=S)NC(=O)[C@]1(C)CCC[C@]2(C)c3ccc(C(C)C)cc3/C(=N\O)C[C@@H]12)c1ccccc1F (stereo not given in full) | 9.16 µM | 19.3 µM | 19.9 µM | 9.73 µM | –
CCOP(=O)(OCC)C(NC(=S)NC(=O)[C@]1(C)CCC[C@]2(C)c3ccc(C(C)C)cc3/C(=N\O)C[C@@H]12)c1cccc(C)c1 (stereo not given in full) | 12.9 µM | 37.9 µM | 28.6 µM | 12.5 µM | –
CCOP(=O)(OCC)C(NC(=S)NC(=O)[C@]1(C)CCC[C@]2(C)c3ccc(C(C)C)cc3/C(=N\O)C[C@@H]12)c1cccc2ccccc12 (stereo not given in full) | 28 µM | 37.1 µM | 40.1 µM | 27.9 µM | –
CCOP(=O)(OCC)C(NC(=S)NC(=O)[C@]1(C)CCC[C@]2(C)c3ccc(C(C)C)cc3/C(=N\O)C[C@@H]12)c1ccc2ccccc2c1 (stereo not given in full) | > 50 µM | 26.8 µM | 40.6 µM | 20.9 µM | –
CCOP(=O)(OCC)C(NC(=S)NC(=O)[C@]1(C)CCC[C@]2(C)c3ccc(C(C)C)cc3/C(=N\O)C[C@@H]12)c1ccc(C)cc1 (stereo not given in full) | 17.9 µM | 22.4 µM | 8.95 µM | 10.9 µM | –
CCOP(=O)(OCC)C(NC(=S)NC(=O)[C@]1(C)CCC[C@]2(C)c3ccc(C(C)C)cc3C(=O)C[C@@H]12)c1ccc(F)cc1 (stereo not given in full) | 17.4 µM | 22.4 µM | 30.2 µM | 45.4 µM | –
CCOP(=O)(OCC)C(NC(=S)NC(=O)[C@]1(C)CCC[C@]2(C)c3ccc(C(C)C)cc3C(=O)C[C@@H]12)c1cccc(F)c1 (stereo not given in full) | 33 µM | 39.8 µM | > 50 µM | 37.1 µM | –
CCOP(=O)(OCC)C(NC(=S)NC(=O)[C@]1(C)CCC[C@]2(C)c3ccc(C(C)C)cc3C(=O)C[C@@H]12)c1cccc2ccccc12 (stereo not given in full) | 32.6 µM | > 50 µM | 27.3 µM | > 50 µM | –
CCOP(=O)(OCC)C(NC(=S)NC(=O)[C@]1(C)CCC[C@]2(C)c3ccc(C(C)C)cc3/C(=N\O)C[C@@H]12)c1cccc(Br)c1 (stereo not given in full) | 34.7 µM | 30.2 µM | 37.7 µM | 42.8 µM | –
CCOP(=O)(OCC)C(NC(=S)NC(=O)[C@]1(C)CCC[C@]2(C)c3ccc(C(C)C)cc3C(=O)C[C@@H]12)c1ccccc1Cl (stereo not given in full) | 22.5 µM | 36.1 µM | 27.9 µM | 39.9 µM | –
CCOP(=O)(OCC)C(NC(=S)NC(=O)[C@]1(C)CCC[C@]2(C)c3ccc(C(C)C)cc3/C(=N\O)C[C@@H]12)c1ccc(F)cc1 (stereo not given in full) | 7 µM | 17.7 µM | 11.4 µM | 13.1 µM | Activity [5]: Dose-dependent effect; Activity [6]: 5.3%; Activity [7]: 14.4%; Activity [8]: Active; Activity [9]: Active; Activity [10]: Non-toxic; Activity [11]: Active; Activity [12]: Active; Activity [13]: Active; Activity [14]: 34%; Activity [15]: Active; Activity [16]: Active; Activity [17]: 17.7%
O=c1[nH]cc(F)c(=O)[nH]1 [FLUOROURACIL] | 34.3 µM | 44 µM | 24.4 µM | 30 µM | –
CCOP(=O)(OCC)C(NC(=S)NC(=O)[C@]1(C)CCC[C@]2(C)c3ccc(C(C)C)cc3C(=O)C[C@@H]12)c1cccc(Cl)c1 (stereo not given in full) | 44.1 µM | > 50 µM | > 50 µM | > 50 µM | –
CCOP(=O)(OCC)C(NC(=S)NC(=O)[C@]1(C)CCC[C@]2(C)c3ccc(C(C)C)cc3/C(=N\O)C[C@@H]12)c1ccc(Br)cc1 (stereo not given in full) | 19 µM | 22.6 µM | 12.7 µM | 26.9 µM | –
CCOP(=O)(OCC)C(NC(=S)NC(=O)[C@]1(C)CCC[C@]2(C)c3ccc(C(C)C)cc3C(=O)C[C@@H]12)c1ccccc1 (stereo not given in full) | 21.6 µM | 21.1 µM | 42.5 µM | 46.8 µM | –
CCOP(=O)(OCC)C(NC(=S)NC(=O)[C@]1(C)CCC[C@]2(C)c3ccc(C(C)C)cc3/C(=N\O)C[C@@H]12)c1ccccc1OC (stereo not given in full) | 27.1 µM | 18.6 µM | 17.9 µM | 8.62 µM | –

SMILES | IC50 [1] | IC50 [2] | IC50 [3] | IC50 [4] | other results
CCOP(=O)(OCC)C(NC(=S)NC(=O)[C@]1(C)CCC[C@]2(C)c3ccc(C(C)C)cc3/C(=N\O)C[C@@H]12)c1ccc(OC)cc1 (stereo not given in full) | 23.6 µM | 38.5 µM | 30.8 µM | 17 µM | –
CCOP(=O)(OCC)C(NC(=S)NC(=O)[C@]1(C)CCC[C@]2(C)c3ccc(C(C)C)cc3/C(=N\O)C[C@@H]12)c1cccc(F)c1 (stereo not given in full) | 28.9 µM | 13.3 µM | 25.2 µM | 17.5 µM | –
CCOP(=O)(OCC)C(NC(=S)NC(=O)[C@]1(C)CCC[C@]2(C)c3ccc(C(C)C)cc3C(=O)C[C@@H]12)c1cccc(OC)c1 (stereo not given in full) | 14.1 µM | 11.5 µM | 8.41 µM | 15.8 µM | –
CCOP(=O)(OCC)C(NC(=S)NC(=O)[C@]1(C)CCC[C@]2(C)c3ccc(C(C)C)cc3C(=O)C[C@@H]12)c1ccccc1OC (stereo not given in full) | 19.9 µM | 29.5 µM | 23.6 µM | > 50 µM | –
CCOP(=O)(OCC)C(NC(=S)NC(=O)[C@]1(C)CCC[C@]2(C)c3ccc(C(C)C)cc3/C(=N\O)C[C@@H]12)c1ccc(Cl)cc1 (stereo not given in full) | 9.66 µM | 23.8 µM | 16.6 µM | 21.4 µM | –
CCOP(=O)(OCC)C(NC(=S)NC(=O)[C@]1(C)CCC[C@]2(C)c3ccc(C(C)C)cc3C(=O)C[C@@H]12)c1ccc(C)cc1 (stereo not given in full) | 22.2 µM | 24.8 µM | 11.8 µM | 15.2 µM | –
CCOP(=O)(OCC)C(NC(=S)NC(=O)[C@]1(C)CCC[C@]2(C)c3ccc(C(C)C)cc3/C(=N\O)C[C@@H]12)c1cccc(Cl)c1 (stereo not given in full) | 19 µM | 28.4 µM | 12.3 µM | 13.2 µM | –
CCOP(=O)(OCC)C(NC(=S)NC(=O)[C@]1(C)CCC[C@]2(C)c3ccc(C(C)C)cc3/C(=N\O)C[C@@H]12)c1ccccc1Cl (stereo not given in full) | 32.8 µM | 29.1 µM | 40.2 µM | > 50 µM | –
CCOP(=O)(OCC)C(NC(=S)NC(=O)[C@]1(C)CCC[C@]2(C)c3ccc(C(C)C)cc3C(=O)C[C@@H]12)c1cccc(C)c1 (stereo not given in full) | 37.1 µM | 42.7 µM | > 50 µM | > 50 µM | –
CCOP(=O)(OCC)C(NC(=S)NC(=O)[C@]1(C)CCC[C@]2(C)c3ccc(C(C)C)cc3C(=O)C[C@@H]12)c1ccc(Br)cc1 (stereo not given in full) | 49.6 µM | 27.9 µM | 36.9 µM | > 50 µM | –
CCOP(=O)(OCC)C(NC(=S)NC(=O)[C@]1(C)CCC[C@]2(C)c3ccc(C(C)C)cc3C(=O)C[C@@H]12)c1ccc(OC)cc1 (stereo not given in full) | 26.1 µM | 24.5 µM | 49.9 µM | > 50 µM | –
CCOP(=O)(OCC)C(NC(=S)NC(=O)[C@]1(C)CCC[C@]2(C)c3ccc(C(C)C)cc3C(=O)C[C@@H]12)c1ccc2ccccc2c1 (stereo not given in full) | 23.2 µM | 19.8 µM | 24.6 µM | 25.2 µM | –
CC(C)c1ccc2c(c1)CC[C@H]1[C@](C)(C(=O)O)CCC[C@]21C [DEHYDROABIETIC ACID] | 79.5 µM | 84.5 µM | 84 µM | 85 µM | –
CCOP(=O)(OCC)C(NC(=S)NC(=O)[C@]1(C)CCC[C@]2(C)c3ccc(C(C)C)cc3/C(=N\O)C[C@@H]12)c1ccccc1 (stereo not given in full) | 27 µM | 36.7 µM | 22.1 µM | 27.2 µM | –
CCOP(=O)(OCC)C(NC(=S)NC(=O)[C@]1(C)CCC[C@]2(C)c3ccc(C(C)C)cc3C(=O)C[C@@H]12)c1ccccc1F (stereo not given in full) | > 50 µM | 36.4 µM | 45.1 µM | 49.3 µM | –
CCOP(=O)(OCC)C(NC(=S)NC(=O)[C@]1(C)CCC[C@]2(C)c3ccc(C(C)C)cc3C(=O)C[C@@H]12)c1cccc(Br)c1 (stereo not given in full) | 42.5 µM | 41.5 µM | 49.1 µM | > 50 µM | –
